Reference: patent US20230364079A1, “COMPOUND AS BRAIN-PERMEABLE BTK OR HER2 INHIBITOR, PREPARATION METHOD THEREFOR, AND USE THEREOF” (CHENGDU HYPERWAY PHARMACEUTICALS CO., LTD., priority 2020, published 2023)

What was measured:
BTK wild-type kinase = BTK wild-type kinase (Homo sapiens (Human), UniProt Q06187); assay: BTK kinase activity inhibition test in vitro (Caliper EZ Reader); assay type: biochemical
Protocol: (§1) In the tests on the activity of inhibiting BTK and HER2 kinase in vitro in the examples of the present disclosure, powder of the compound was dissolved in 100% DMSO to prepare a 10 mM stock solution and stored at-20° C. in the dark. […] In addition, the compounds were subjected to experiments such as liver microsome metabolic stability, rat PK, rat brain penetration rate, and drug efficacy model in the examples of the present disclosure.
(§2) Compound powders were dissolved in 100% DMSO to make 10 mM stock solutions, which were stored at -20° C. in the dark.
(§3) 2: Kinase Reaction Process
(§4) (1) Preparation of 1 × Kinase buffer.
(§5) (5) After centrifugation at 1000 rpm for 30 seconds, the reaction plate was shaken to mix well and incubated at room temperature for 10 min.
(§6) (6) A 5/3-fold final concentration of a mixed solution of ATP and Kinase substrate 2 was prepared with 1 × Kinase buffer.
(§7) (7) 15 µL of the mixed solution of ATP and substrate with 5/3-fold final concentration was added to start the reaction.
(§8) (8) The 384-well plate was centrifuged at 1000 rpm for 30 seconds, shaken to mix well, and incubated at room temperature for 10 min.
(§9) (9) 30 µL of a stop solution was added to stop the kinase reaction, and after centrifugation at 1000 rpm for 30 seconds, the plate was shaken to mix well;
(§10) (10) The conversion rate was read with Caliper EZ Reader.
(§11) where Conversion%_sample indicates the conversion rate reading of the sample; Conversion%_min is the average reading of the negative control wells, representing the conversion rate reading of the wells without enzyme activity; Conversion%_max is the average reading of the ratio of the positive control wells, representing the conversion rate reading of the wells without compound inhibition.
(§12) Dose-Response Curve Fitting
(§13) With the log value of the concentration as the X-axis, and the percentage inhibition rate as the Y-axis, the dose-effect curve was fitted using the log(inhibitor) vs. response-Variable slope of the analysis software GraphPad Prism 5, so as to determine the IC50 value of each compound on the enzyme activity.
(§14) The calculation formula was: […]

[1] = target: BTK mutation-type C481S kinase (Homo sapiens (Human), UniProt Q06187, C481S); assay: BTK-C481S kinase activity inhibition test in vitro (Caliper EZ Reader); assay type: biochemical
Protocol: as §1, §2, §3, §4, §5, §6, §7, §8, §9, §10, §11, §12, §13, §14

[2] = Liver microsome metabolic stability test, human; assay type: in vitro ADME; settings: for microsomal CLint / half-life: liver microsomes; for half-life: read-out: T½
Protocol: (§15) 1: To the sample wells of T0, T5, T10, T20, T30, T60 and NCF60, 10 µL of the test or reference working solution and 80 µL of microsome working solution (hepatic microsome with a protein concentration of 0.5 mg/mL) were added, and to Blank60 well, only the microsome working solution was added. Then samples of the Blank60, T5, T10, T20, T30 and T60 other than T0 and NCF60 were placed in a 37° C. water bath and pre-incubated for about 10 min.
(§16) 2: To the T0 sample well, 300 µL of stop solution (containing 200 ng/mL tolbutamide and 200 ng/mL labetalol in acetonitrile solution) was added first, followed by 10 µL of NADPH regeneration system working solution.
(§17) 3: After the pre-incubation of Blank60, T5, T10, T20, T30 and T60 incubation plates, 10 µL of NADPH regeneration system working solution was added to each sample well to start the reaction, and 10 µL of 100 mM potassium phosphate buffer was added to the NCF60 sample well.
(§18) 4: After incubation for an appropriate time (such as 5, 10, 20, 30 and 60 min), to each test sample well and control well of the Blank60, T5, T10, T20, T30, T60 and NCF60 plates, 300 µL of stop solution was added to terminate the reaction.
(§19) 5: All sample plates were shaken to mix well and centrifuged at 4000 rpm for 20 min, and 100 µL of the supernatant of the test sample or control sample was taken and diluted with 300 µL of pure water for LC-MS/MS analysis.
(§20) 6: Data analysis: T½ and CLint(mic) (µL/min/mg) values were calculated according to the first-order elimination kinetics. The first-order elimination kinetics equation was: […]

[3] = Liver microsome metabolic stability test, rat; assay type: in vitro ADME; settings: for microsomal CLint / half-life: liver microsomes; for half-life: read-out: T½
Protocol: as §15, §16, §17, §18, §19, §20

[4] = Pharmacokinetic test, oral, SD rats; assay type: in vivo; settings: oral 10 mg/kg, plasma; for AUC(0-inf) / Cmax / half-life: rat; for Cmax: read-out: Cmax; for half-life: read-out: T½ (converted)
Protocol: Each test compound was administered orally (10 mg/kg, 3 rats in each group) to SD rats for pharmacokinetic study. […] Animals were fasted overnight before oral administration, and fed again after 4 h of administration. […] At each collection time point, 3 whole blood samples were collected at a the collection volume of about 0.2-0.3 mL. […] The collected plasma was stored at -20° C. before analysis. 20 µL of plasma sample was added into a 1.6 mL 96-well deep-well plate, added with 200 µL of working internal standard solution (the same volume of vehicle was added to the blank instead of internal standard), vortexed for 1 min, and centrifuged at 5800 rpm for 10 min. 100 µL of the supernatant was added to a 96-well injection plate for LC-MS/MS analysis.

Chain of BTK wild-type kinase (Q06187 whole entry): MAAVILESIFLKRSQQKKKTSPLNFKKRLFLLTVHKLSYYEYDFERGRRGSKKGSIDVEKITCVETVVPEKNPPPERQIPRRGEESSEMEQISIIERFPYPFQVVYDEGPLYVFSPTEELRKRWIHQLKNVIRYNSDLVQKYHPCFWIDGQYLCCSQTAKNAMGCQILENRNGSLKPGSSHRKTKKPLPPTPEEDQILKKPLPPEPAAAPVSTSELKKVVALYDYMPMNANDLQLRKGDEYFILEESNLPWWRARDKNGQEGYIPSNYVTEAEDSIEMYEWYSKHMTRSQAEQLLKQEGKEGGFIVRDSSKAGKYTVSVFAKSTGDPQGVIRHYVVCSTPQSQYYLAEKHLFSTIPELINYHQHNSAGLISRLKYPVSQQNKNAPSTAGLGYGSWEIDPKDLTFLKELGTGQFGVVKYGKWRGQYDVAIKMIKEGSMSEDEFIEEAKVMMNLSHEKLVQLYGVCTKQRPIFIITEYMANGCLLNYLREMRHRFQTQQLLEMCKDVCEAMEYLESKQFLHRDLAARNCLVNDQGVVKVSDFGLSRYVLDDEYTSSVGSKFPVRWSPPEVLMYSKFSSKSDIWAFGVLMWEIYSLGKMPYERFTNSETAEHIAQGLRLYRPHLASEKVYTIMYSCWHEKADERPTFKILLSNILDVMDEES
Chain of BTK mutation-type C481S kinase (Q06187 whole entry C481S): as the sequence (Q06187 whole entry) above, with C481S counted along it

| IC50 (BTK wild-type kinase) | IC50 [1] | half-life ([2]; 0.5 mg/mL protein) | half-life ([3]; 0.5 mg/mL protein) | %Remaining (60 min) [2] | %Remaining (60 min) [3] | SMILES | further results |
| --- | --- | --- | --- | --- | --- | --- | --- |
| < 5 nM | < 5 nM | > 145 min | 114 min | 85.4% | 72.7% | Nc1nccn2c(C3CCC(CO)OC3)nc(-c3ccc(C(=O)Nc4cc(C(F)(F)F)ccn4)cc3)c12 (single isomer, unassigned) [Compound 109-P1] | Cl [4]: 1.62 mL/min/kg; AUC(0-inf) [4]: 104000 ng·h/mL; Cmax [4]: 16700 ng/mL; half-life [4]: 170 min; microsomal CLint [2]: < 9.6 µL/min/mg; microsomal CLint [3]: 12.2 µL/min/mg |
| 20 to 100 nM | 5 to 20 nM |  |  | 99.9% | 63.7% | Nc1nccn2c(C3CC[C@@H](CO)OC3)nc(-c3ccc(C(=O)Nc4ccccn4)cc3F)c12 (some centres unmarked) [Compound 1-B] | CLint [2]: <9.6 µL/min/mg; T½ ([2]; 0.5 mg/mL protein): >145 min; CLint [3]: 18.2 µL/min/mg; T½ ([3]; 0.5 mg/mL protein): 76.1 min |
| < 5 nM | < 5 nM |  |  |  |  | [2H]C([2H])([2H])Oc1cccc(Oc2ccc(-c3nc(C4CCC(CO)OC4)n4ccnc(N)c34)cc2)c1F (centres unmarked) [Compound 7] |  |
|  |  | 11.1 min | 11.8 min | 2.6% | 3.0% | COc1cccc(Oc2ccc(-c3nc(C4CCC(CO)OC4)n4c(Cl)cnc(N)c34)cc2)c1F (centres unmarked) [Compound 12] |  |
| 5 to 20 nM |  | 37.5 min | 21.7 min | 31.8% | 14.6% | Nc1nccn2c(C3CCC(CO)OC3)nc(-c3ccc(Oc4ccccc4)cc3)c12 (centres unmarked) [Compound 16] |  |
| 5 to 20 nM | 5 to 20 nM |  |  |  |  | Nc1nccn2c(C3CCC(CO)OC3)nc(-c3ccc(Oc4ccccc4)cc3F)c12 (centres unmarked) [Compound 17] |  |
| 5 to 20 nM |  | 29.4 min | 16.7 min | 23.5% | 7.9% | Nc1nccn2c(C3CCC(CO)OC3)nc(-c3ccc(Oc4cccc(C(F)(F)F)c4F)cc3)c12 (centres unmarked) [Compound 19] |  |
| < 5 nM |  | 18.5 min | 5.4 min | 9.7% | 0.1% | Cc1cccc(Oc2ccc(-c3nc(C4CCC(CO)OC4)n4ccnc(N)c34)cc2)c1F (centres unmarked) [Compound 24] |  |
| 5 to 20 nM | 5 to 20 nM | 44.5 min | 30.1 min | 39.1% | 24.5% | Nc1nccn2c(C3CCC(CO)OC3)nc(-c3ccc(C(=O)c4ccccc4)cc3)c12 (centres unmarked) [Compound 26] |  |
|  |  |  |  | 109.9% | 69% | COc1ccccc1C(=O)NCc1ccc(-c2nn(C3CCC(CO)OC3)c3ncnc(N)c23)cc1 (centres unmarked) [Compound 60-A] |  |
| 5 to 20 nM |  | 37.7 min | 17 min | 31.7% | 8.5% | Nc1nccn2c(C3CCC(CO)OC3)nc(-c3ccc(Oc4c(F)cccc4F)cc3)c12 (centres unmarked) [Compound 64] |  |
| 5 to 20 nM | 5 to 20 nM |  |  |  |  | COc1cccc(C(F)(F)c2ccc(-c3nc(C4CCC(CO)OC4)n4ccnc(N)c34)cc2)c1 (centres unmarked) [Compound 121] |  |
| 100 to 1000 nM | 100 to 1000 nM |  |  |  |  | Nc1nccn2c(C3CCC(CO)OC3)nc(-c3ccc(C(F)(F)c4cc(C(F)(F)F)ccn4)cc3)c12 (centres unmarked) [Compound 124] |  |
| 100 to 1000 nM |  | 30.2 min | 13.5 min | 25.4% | 25.8% | Nc1nccn2c(C34CCC(CO)(CC3)OC4)nc(-c3ccc(C(F)(F)c4cccc(Cl)c4F)cc3)c12 [Compound 152] | Cl [4]: 272.78 mL/min/kg; AUC(0-inf) [4]: 1330 ng·h/mL; Cmax [4]: 200 ng/mL; half-life [4]: 169 min |
| 100 to 1000 nM |  | 33.3 min | 22.3 min | 25.8% | 14.2% | Nc1nccn2c(C34CCC(CO)(CC3)OC4)nc(-c3ccc(C(F)(F)c4ccccc4Cl)cc3)c12 [Compound 155] |  |

Continued, molecule first:

| SMILES | IC50 (BTK wild-type kinase) | IC50 [1] | half-life ([2]; 0.5 mg/mL protein) | half-life ([3]; 0.5 mg/mL protein) | %Remaining (60 min) [2] | %Remaining (60 min) [3] | further results |
| --- | --- | --- | --- | --- | --- | --- | --- |
| Nc1cccc(NC(=O)c2ccc(-c3nc([C@@H]4CC[C@@H](CO)OC4)n4ccnc(N)c34)cc2)n1 (single isomer, unassigned) [Compound 2-A-P2] | 20 to 100 nM | 20 to 100 nM |  |  |  |  |  |
| COc1ccccc1C(=O)NCc1ccc(-c2nn(C3CCC(CO)OC3)c3ncnc(N)c23)cc1 (single isomer, unassigned) [Compound 60-A] | 5 to 20 nM |  | > 145 min | 143 min |  |  | microsomal CLint [2]: < 9.6 µL/min/mg; microsomal CLint [3]: 9.7 µL/min/mg |
| COc1cccc(Oc2ccc(-c3nc(C4CCC(CO)OC4)n4ccnc(N)c34)cc2)c1F (centres unmarked) [Compound 5] | < 5 nM | < 5 nM | 35.7 min | 11.4 min | 31.7% | 12.7% | Cl [4]: 69.13 mL/min/kg; AUC(0-inf) [4]: 2520 ng·h/mL; Cmax [4]: 463 ng/mL; half-life [4]: 70.2 min |
| Nc1nccn2c(C3CCC(CO)OC3)nc(-c3ccc(Oc4cccc(F)c4F)cc3)c12 (centres unmarked) [Compound 8] | < 5 nM | < 5 nM | 40.9 min | 20.8 min | 37.4% | 13.6% |  |
| Nc1nccn2c(C3CCC(CO)OC3)nc(-c3ccc(Oc4cccc(Cl)c4F)cc3)c12 (centres unmarked) [Compound 9] |  |  | 28.6 min | 12.2 min | 24.5% | 3.2% |  |
| Nc1nccn2c(C34CCC(CO)(CC3)OC4)nc(-c3ccc(C(=O)Nc4ccccn4)cc3)c12 [Compound 34] | 5 to 20 nM | 5 to 20 nM | > 145 min | > 145 min | 112.0% | 90.3% | Cl [4]: 8.1 mL/min/kg; AUC(0-inf) [4]: 20600 ng·h/mL; Cmax [4]: 11100 ng/mL; half-life [4]: 102 min |
| Cc1ccnc(NC(=O)c2ccc(-c3nc(C4CCC(CO)OC4)n4ccnc(N)c34)cc2)c1 (centres unmarked) [Compound 70] | 5 to 20 nM |  | 105 min | 45.7 min | 77.7% | 37.3% |  |
| COc1cccc(Oc2ccc(-c3nc(C4CCC(CO)OC4)n4ccnc(N)c34)cc2)c1 (centres unmarked) [Compound 101] | < 5 nM |  | > 145 min | 46.5 min | 81.1% | 39.5% | Cl [4]: 48.75 mL/min/kg; AUC(0-inf) [4]: 3670 ng·h/mL; Cmax [4]: 1770 ng/mL; half-life [4]: 75 min |
| N#Cc1ccnc(NC(=O)c2ccc(-c3nc(C4CCC(CO)OC4)n4ccnc(N)c34)cc2)c1 (centres unmarked) [Compound 103] | < 5 nM | < 5 nM | > 145 min | > 145 min | 100.3% | 85.7% | Cl [4]: 16.67 mL/min/kg; AUC(0-inf) [4]: 10400 ng·h/mL; Cmax [4]: 4730 ng/mL; half-life [4]: 104 min |
| Nc1nccc2c1n(-c1ccc(Oc3ccccc3)cc1)c(=O)n2C1CCC(CO)OC1 (centres unmarked) [Compound 120] | 20 to 100 nM | 5 to 20 nM |  |  |  |  |  |
